Assays:
Type in all cases: in vivo
Conditions in all cases: 250 g/h, evaluated after 13 days
Avena fatua (AVEFA) [1] = test: Pre-emergence herbicidal glasshouse test, percentage damage
How it was run: (§1)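 A single spray at 250 g/h was given either to soil one day after sowing or to seedlings after eight days' growth. Vehicle was acetone/water (50:50) with 0.5% Tween 20. Thirteen days on, damage was rated in 20% bands, 1 (0-19%) to 5 (80-100%).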

Lolium perenne (LOLPE) [2] = test: as above
How it was run: as §1

[3] = tested on: Alopecurus myosuroides (ALOMY); test: as above
How it was run: as §1

Setaria faberi (SETFA) [4] = test: as above
How it was run: as §1

[5] = tested on: Echinochloa crus-galli (ECHCG); test: as above
How it was run: as §1

Setaria faberi (SETFA) [6] = test: Post-emergence herbicidal glasshouse test, percentage damage
How it was run: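 Wheat, barley and Setaria faberi were sprayed post-emergence after 8 days' growth (24/16 °C, 14 h light, 65% humidity) with compound in acetone/water (50:50) containing 0.5% Tween 20, at the indicated rates. On wheat, compounds were also applied with cloquintocet-mexyl at 50 g/ha. Damage was scored after 13 days on a five-point scale (5=80-100% to 1=0-19%).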

Avena fatua (AVEFA) [7] = test: as above
How it was run: as §1

Lolium perenne (LOLPE) [8] = test: as above
How it was run: as §1

[9] = tested on: Alopecurus myosuroides (ALOMY); test: as above
How it was run: as §1

[10] = tested on: Echinochloa crus-galli (ECHCG); test: as above
How it was run: as §1

| SMILES | AVEFA PRE percentage damage (five point scale) (Avena fatua (AVEFA) [1]) | LOLPE PRE percentage damage (five point scale) (Lolium perenne (LOLPE) [2]) | ALOMY PRE percentage damage (five point scale) [3] | SETFA PRE percentage damage (five point scale) (Setaria faberi (SETFA) [4]) | ECHCG PRE percentage damage (five point scale) [5] | SETFA POST percentage damage (five point scale) (Setaria faberi (SETFA) [6]) | AVEFA POST percentage damage (five point scale) (Avena fatua (AVEFA) [7]) | LOLPE POST percentage damage (five point scale) (Lolium perenne (LOLPE) [8]) | ALOMY POST percentage damage (five point scale) [9] | ECHCG POST percentage damage (five point scale) [10] |
| --- | --- | --- | --- | --- | --- | --- | --- | --- | --- | --- |
| CC#Cc1cc(C)c(C2C(=O)CC3(CCN(C(=O)Cc4cccnn4)CC3)CC2=O)c(C)c1 [Compound A103] | 4 (4=60-79%) | 4 (4=60-79%) | 4 (4=60-79%) | 5 (5=80-100%) | 5 (5=80-100%) | 5 (5=80-100%) | 5 (5=80-100%) | 5 (5=80-100%) | 5 (5=80-100%) | 5 (5=80-100%) |
| CC#Cc1cc(C)c(C2C(=O)CC3(CCN(C(=O)CCn4cccn4)CC3)CC2=O)c(C)c1 [Compound A195] | 5 (5=80-100%) | 5 (5=80-100%) | 4 (4=60-79%) | 5 (5=80-100%) | 2 (2=20-39%) | 5 (5=80-100%) | 5 (5=80-100%) | 5 (5=80-100%) | 5 (5=80-100%) | 5 (5=80-100%) |
| CC#Cc1cc(C)c(C2C(=O)CC3(CCN(C(=O)c4ccccc4)CC3)CC2=O)c(C)c1 [Compound A7] | 5 (5=80-100%) | 5 (5=80-100%) | 5 (5=80-100%) | 5 (5=80-100%) | 5 (5=80-100%) | 5 (5=80-100%) | 5 (5=80-100%) | 5 (5=80-100%) | 5 (5=80-100%) | 5 (5=80-100%) |
| CC#Cc1cc(C)c(C2C(=O)CC3(CCN(C(=O)C4=COCCO4)CC3)CC2=O)c(C)c1 [Compound A170] | 2 (2=20-39%) | 4 (4=60-79%) | 4 (4=60-79%) | 4 (4=60-79%) | 3 (3=40-59%) | 5 (5=80-100%) | 5 (5=80-100%) | 5 (5=80-100%) | 5 (5=80-100%) | 5 (5=80-100%) |
| CC#Cc1cc(C)c(C2=C(OC(=O)OC)CC3(CCN(C(=O)COCCOC)CC3)CC2=O)c(C)c1 [Compound P50] | 2 (2=20-39%) | 4 (4=60-79%) | 3 (3=40-59%) | 5 (5=80-100%) | 5 (5=80-100%) | 5 (5=80-100%) | 5 (5=80-100%) | 5 (5=80-100%) | 4 (4=60-79%) | 5 (5=80-100%) |
| CC#Cc1cc(C)c(C2=C(OC(C)=O)CC3(CCN(C(=O)C4CC4)CC3)CC2=O)c(C)c1 [Compound P29] | 5 (5=80-100%) | 5 (5=80-100%) | 5 (5=80-100%) | 5 (5=80-100%) | 5 (5=80-100%) | 5 (5=80-100%) | 5 (5=80-100%) | 5 (5=80-100%) | 5 (5=80-100%) | 5 (5=80-100%) |
| CC#Cc1cc(C)c(C2C(=O)CC3(CCN(C(=O)NC(=O)c4cc(F)ccn4)CC3)CC2=O)c(C)c1 [Compound A164] | 5 (5=80-100%) | 5 (5=80-100%) | 4 (4=60-79%) | 5 (5=80-100%) | 5 (5=80-100%) | 5 (5=80-100%) | 5 (5=80-100%) | 5 (5=80-100%) | 5 (5=80-100%) | 5 (5=80-100%) |
| CC#Cc1cc(C)c(C2C(=O)CC3(CCN(C(=O)C4=COCCC4)CC3)CC2=O)c(C)c1 [Compound A175] | 4 (4=60-79%) | 5 (5=80-100%) | 5 (5=80-100%) | 5 (5=80-100%) | 5 (5=80-100%) | 5 (5=80-100%) | 5 (5=80-100%) | 5 (5=80-100%) | 5 (5=80-100%) | 5 (5=80-100%) |
| CC#Cc1cc(C)c(C2C(=O)CC3(CCN(C(=O)N4CCOCC4)CC3)CC2=O)c(C)c1 [Compound A13] | 5 (5=80-100%) | 5 (5=80-100%) | 5 (5=80-100%) | 5 (5=80-100%) | 5 (5=80-100%) | 5 (5=80-100%) | 5 (5=80-100%) | 5 (5=80-100%) | 5 (5=80-100%) | 5 (5=80-100%) |
| CC#Cc1cc(C)c(C2C(=O)CC3(CCN(C(=O)Cc4cnccn4)CC3)CC2=O)c(C)c1 [Compound A104] | 5 (5=80-100%) | 5 (5=80-100%) | 4 (4=60-79%) | 5 (5=80-100%) | 5 (5=80-100%) | 5 (5=80-100%) | 5 (5=80-100%) | 5 (5=80-100%) | 5 (5=80-100%) | 5 (5=80-100%) |
| CC#Cc1cc(C)c(C2C(=O)CC3(CCN(C(=O)COCC)CC3)CC2=O)c(C)c1 [Compound A148] | 5 (5=80-100%) | 5 (5=80-100%) | 5 (5=80-100%) | 5 (5=80-100%) | 5 (5=80-100%) | 5 (5=80-100%) | 5 (5=80-100%) | 5 (5=80-100%) | 5 (5=80-100%) | 5 (5=80-100%) |

Reference: patent publication US12043599B2, “Herbicidal compounds” (SYNGENTA PARTICIPATIONS AG, priority 2018, dated 2024)
